Patent US20230365988A1, “MOUSE MODEL FOR BIO-IMAGING OF INFLAMMATORY SIGNALS, PREPARATION METHOD THEREFOR AND USE THEREOF” (KOREA MOUSE PHENOTYPING CENTER, priority 2020, published 2023)
Entries after “also recorded” stand apart in the source; their conditions may differ.

Columns and labels:
NF-κB [1] = test: Luciferase activity in LPS-treated bone marrow-derived macrophages of the myeloid-specific NF-κB reporter mouse; type: cell-based; conditions: 6 hours
Protocol: (§1) Macrophages, mononuclear cells, derived from the bone marrow of the mouse model established in Example <2-1> were differentiated, luciferase activity was confirmed, and NF-κ activity and luciferase protein expression were confirmed by Western blotting. In addition, 20 uM BAY 11-7082 (NF-kB inhibitor) was treated simultaneously with LPS in the same manner as above to evaluate the luciferase activity.
Particularly, the mouse was euthanized with CO2, the femur and tibia were obtained, and the bone marrow cavity was exposed. Then, RPMI 1640 culture medium (10% FBS, 1% penicillin, stretptomycin) containing M-CSF was passed through using a 1 ml syringe, and the contents were collected to make 6 ml of the culture medium. Thereafter, the contents were transferred to a Petri dish and cultured for 3 days at 37° C. under 5% CO2 conditions, and then the medium was replaced with fresh RPMI 1640 culture medium. After 3 days, the culture medium was removed from the Petri dish and washed with PBS (phosphate buffered saline). […] After 6 hours, the culture medium was removed, and 100 μl of HBSS (Hanks' Balanced Salt solution) containing D-luciferin was added to each well of the plate, and then the luciferase activity was evaluated.

NF-κB [2] = test: PMA-induced ear edema model, luciferase imaging; type: in vivo; conditions: 2 μg PMA on left ear twice at a 24 hour interval, measured 24 hours later, Lyz2-Cre reporter mouse
Protocol: To confirm imaging of inflammatory signals in the mouse model established in Example <2-1>, ear edema was induced by treatment with PMA (phorbol 12-myristate 13-acetate), an inflammatory factor.
Particularly, the left ear of the mouse was treated with 2 μg/40 ? of PMA diluted in ethanol using a micropipette, and the right ear was treated with the same amount of ethanol (40 ? ). After 24 hours, the left ear was treated with 2 μg of PMA, and the right ear was treated with the same amount of ethanol (40 ? ). After another 24 hours, 100 ? of D-luciferin (15 mg/ml in PBS) was intraperitoneally administered using a 1 ml syringe, and luciferase signals were measured in the ears of the mouse under respiratory anesthesia with isoflurane.

NF-κB [3] = test: DSS-induced colitis model, luciferase imaging; type: in vivo; conditions: 3% DSS as drinking water, days 3 and 5, Lyz2-Cre reporter mouse
Protocol: Colitis was induced by DSS (dextran sulfate sodium salt) in the mouse model established in Example <2-1>, and it was confirmed whether bio-imaging of inflammatory signals over time was possible.
Particularly, 6 g of DSS was added to sterilized tertiary distilled water and stirred for 60 minutes to prepare a 3% DSS aqueous solution. […] After the measurement, the 3% DSS aqueous solution was supplied as drinking water to the mice. While maintaining DSS supply, 100 ? of D-luciferin (15 mg/ ? in PBS) was intraperitoneally administered using a 1 ? syringe on the days after 3 and 5 days after the start of DSS supply, and luciferase signals were measured in the abdomen.

NF-κB [4] = test: Western blotting of luciferase expression in LPS-treated bone marrow-derived macrophages; type: cell-based, mouse; conditions: LPS 10 ng/ml and 100 ng/ml, 6 hours
Protocol: as §1
For Western blotting, the detached cells were diluted in RPMI 1640 culture medium, and then distributed in a 6 well plate at the density of 70,000 cells/well, followed by culture. After 24 hours of culture, the experimental group was treated with LPS at the concentrations of 10 ng/ml and 100 ng/ml for 6 hours. The culture medium was removed and homogenized with a buffer containing 20 mM Tris-HCl (pH 7.4), 1% Triton X-100, 15 mM NaCl and protease inhibition cocktail, and centrifuged at 4° C., 13,000 g for 20 minutes. Then, SDS-PAGE (sodium dodecyl sulfate-polyacrylamide gel electrophoresis) was performed using the supernatant to separate proteins. The separated proteins were transferred to a PVDF membrane and blocked with TBST buffer (Tris-Buffered Saline, 0.1% TWEEN 20) containing 5% skim milk powder. […]

## Cc1ccc(S(=O)(=O)/C=C/C#N)cc1 [BAY 11-7082]
NF-κB [1]; 20 uM BAY 11-7082 simultaneously with LPS (10 and 100 ng/ml)
  LPS-increased luciferase signal activity (NF-kB activity) after inhibitor treatment: inhibited; also recorded: suppressed

## CCCCCCCCCCCCCC(=O)O[C@@H]1[C@@H](C)[C@@]2(O)[C@@H](C=C(CO)C[C@]3(O)C(=O)C(C)=C[C@@H]23)[C@@H]2C(C)(C)[C@]12OC(C)=O [PMA, phorbol 12-myristate 13-acetate]
NF-κB [2]
  luciferase signal in treated left ear compared to ethanol-treated right ear: specifically strong

## dextran sulfate sodium salt [DSS]
NF-κB [3]
  luciferase signal in the large intestine region of the abdomen: strongly expressed

## lipopolysaccharide [LPS]
NF-κB [4]
  luciferase expression by Western blotting: luciferase expression was increased
NF-κB [1]; LPS 10 ng/ml and 100 ng/ml
  luciferase signal activity: increased by LPS dose-dependently
